Experimental findings from patent US6534491B2, “Preparation and use of ortho-sulfonamido bicyclic heteroaryl hydroxamic acids as matrix metalloproteinase and tace inhibitors” (priority 1996, dated 2003) are described below.

What is called IC50 is the concentration at which inhibition is half-maximal. Broadly, the melting point is the temperature, or range, at which the solid turns liquid. As a reminder, the inhibition is the change of the read-out against control, counted positive when it falls.

The target of series [1] is T1, MMP-1 (Homo sapiens, UniProt P03956).
T1 sequence (P03956 100-469): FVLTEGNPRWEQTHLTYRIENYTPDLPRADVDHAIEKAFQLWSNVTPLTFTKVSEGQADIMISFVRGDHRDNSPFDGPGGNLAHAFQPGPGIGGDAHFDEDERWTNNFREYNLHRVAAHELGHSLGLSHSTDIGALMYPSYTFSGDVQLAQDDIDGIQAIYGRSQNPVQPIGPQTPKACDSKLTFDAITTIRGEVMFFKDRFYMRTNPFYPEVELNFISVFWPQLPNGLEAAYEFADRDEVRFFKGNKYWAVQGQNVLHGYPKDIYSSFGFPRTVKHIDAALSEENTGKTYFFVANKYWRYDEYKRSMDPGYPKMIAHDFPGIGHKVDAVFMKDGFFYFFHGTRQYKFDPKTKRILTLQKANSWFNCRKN
As to conditions: read-out: MMP-1 IC50.

The next series concerns the target TACE (Homo sapiens, UniProt P78536). Nature of the series: TACE inhibition (fluorescent peptidyl substrate). Format: biochemical.
A further series deals with MMP-9 (Homo sapiens, UniProt P14780). Put plainly: MMP-9 inhibition (thiopeptide or fluorescent peptide substrate). The format is biochemical. As to conditions: read-out: MMP-9 IC50.
Sequence of MMP-9 (P14780 94-707): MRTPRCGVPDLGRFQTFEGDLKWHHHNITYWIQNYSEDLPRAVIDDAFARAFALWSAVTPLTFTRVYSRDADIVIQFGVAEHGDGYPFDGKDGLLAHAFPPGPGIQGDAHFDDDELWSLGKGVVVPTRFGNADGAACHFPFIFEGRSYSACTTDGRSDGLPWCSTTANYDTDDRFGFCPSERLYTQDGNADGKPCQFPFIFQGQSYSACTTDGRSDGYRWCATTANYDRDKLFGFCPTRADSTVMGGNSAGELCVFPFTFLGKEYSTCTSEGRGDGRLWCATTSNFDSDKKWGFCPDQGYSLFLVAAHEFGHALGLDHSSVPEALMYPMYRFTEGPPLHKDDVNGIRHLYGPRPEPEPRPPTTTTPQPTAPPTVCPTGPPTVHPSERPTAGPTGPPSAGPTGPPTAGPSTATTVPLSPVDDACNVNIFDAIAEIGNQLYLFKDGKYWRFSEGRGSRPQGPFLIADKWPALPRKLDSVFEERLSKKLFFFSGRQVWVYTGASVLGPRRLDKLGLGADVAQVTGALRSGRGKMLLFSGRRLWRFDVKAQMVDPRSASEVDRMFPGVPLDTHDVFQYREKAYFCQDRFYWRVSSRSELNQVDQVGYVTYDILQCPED
For series [2], the target named is T2, MMP-13 (Homo sapiens, UniProt P45452). Nature of the series: In vivo MMP inhibition test procedure (implanted dialysis tubing containing enzyme). Also noted: species or system rat or mouse. Particulars: dose 25 mg/kg, p.o. vs MMP-13.
Description: A 2 cm piece of dialysis tubing (molecular weight cut-off 12-14,000, 10 mm flat width) containing matrix metalloproteinase enzyme (stromelysin, collagenase or gelatinase in 0.5 mL of buffer) is implanted either ip or sc (in the back) of a rat (Sprague-Dawley, 150-200 g) or mouse (CD-1, 25-50 g) under anesthesia. Drugs are administered PO, IP, SC or IV through a canula in the jugular vein. […] Contents of the dialysis tubing is collected and enzyme activity assayed.
Enzyme reaction rates for each dialysis tube are calculated. Tubes from at least 3 different animals are used to calculate the mean±sem. Statistical significance (p<0.05) of vehicle-treated animals versus drug-treated animals is determined by analysis of variance.
For series [3], the target named is T2, MMP-13. Put plainly: MMP-13 inhibition (thiopeptide or fluorescent peptide substrate). Format: biochemical.
Description: (§1) The enzyme activity is measured by the rate of the color increase. The thiopeptide substrate is made up fresh as a 20 mM stock in 100% DMSO and the DTNB is dissolved in 100% DMSO as a 100 mM stock and stored in the dark at room temperature. Both the substrate and DTNB are diluted together to 1 mM with substrate buffer (50 mM HEPES pH 7.5, 5 mM CaCl2) before use. The stock of enzyme is diluted with buffer (50 mM HEPES, pH 7.5, 5 mM CaCl2, 0.02% Brij) to the desired final concentration.
(§2) Alternatively, a fluorescent peptide substrate is used. In this test procedure, the peptide substrate contains a fluorescent group and a quenching group. Upon cleavage of the substrate by an MMP, the fluorescence that is generated is quantitated on the fluorescence plate reader. The assay is run in HCBC assay buffer (50 mM HEPES, pH 7.0, 5 mM Ca^+2, 0.02% Brij, 0.5% Cysteine), with human recombinant MMP-1, MMP-9, or MMP-13. The substrate is dissolved in methanol and stored frozen in 1 mM aliquots. For the assay, substrate and enzymes are diluted in HCBC buffer to the desired concentrations. Compounds are added to the 96 well plate containing enzyme and the reaction is started by the addition of substrate.
(§3) For either the thiopeptide or fluorescent peptide test procedures, the slope of the line is calculated and represents the reaction rate. The linearity of the reaction rate is confirmed (r^2>0.85). The mean (x±sem) of the control rate is calculated and compared for statistical significance (p<0.05) with drug-treated rates using Dunnett's multiple comparison test.
In series [4] the target is T1, MMP-1. Nature of the series: biochemical. As to conditions: read-out: MMP-1 % inhibition.

Counter-ions that a name gives are not always drawn.

Sequence of TACE (P78536 215-824): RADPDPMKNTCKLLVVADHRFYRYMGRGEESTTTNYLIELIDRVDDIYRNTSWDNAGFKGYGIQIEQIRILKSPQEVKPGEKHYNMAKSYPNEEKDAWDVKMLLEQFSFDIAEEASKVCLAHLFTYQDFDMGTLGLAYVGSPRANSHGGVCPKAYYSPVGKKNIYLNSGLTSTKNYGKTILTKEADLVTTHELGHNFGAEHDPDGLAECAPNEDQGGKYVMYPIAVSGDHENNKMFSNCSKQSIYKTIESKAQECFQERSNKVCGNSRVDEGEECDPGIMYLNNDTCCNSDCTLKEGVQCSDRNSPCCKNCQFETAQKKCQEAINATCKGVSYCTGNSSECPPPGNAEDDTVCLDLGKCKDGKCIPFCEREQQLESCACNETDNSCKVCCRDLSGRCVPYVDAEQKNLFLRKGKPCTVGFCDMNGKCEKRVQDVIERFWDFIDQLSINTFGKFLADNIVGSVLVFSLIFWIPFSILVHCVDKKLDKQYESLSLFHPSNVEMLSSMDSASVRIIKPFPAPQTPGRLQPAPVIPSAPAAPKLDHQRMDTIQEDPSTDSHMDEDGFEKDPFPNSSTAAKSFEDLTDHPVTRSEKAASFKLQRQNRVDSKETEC
Description for MMP-9: as §1, §2, §3
Description for TACE: Using 96-well black microtiter plates, each well receives a solution composed of 10 μL TACE (final concentration 1 μg/mL), 70 μL Tris buffer, pH 7.4 containing 10% glycerol (final concentration 10 mM), and 10 μL of test compound solution in DMSO (final concentration 1 μl M, DMSO concentration <1%) and incubated for 10 minutes at room temperature.
The reaction is read (excitation 340 nm, emission 420 nm) for 10 min. and the increase in fluorescence over time is plotted as a linear line. The slope of the line is calculated and represents the reaction rate.
The linearity of the reaction rate is confirmed (r^2>0.85). The mean (x±sem) of the control rate is calculated and compared for statistical significance (p<0.05) with drug-treated rates using Dunnett's multiple comparison test.

Consider “4-[(4-Methoxy-benzenesulfonyl)-pyridin-3-ylmethyl-amino]-8-thiophen-2-yl-quinoline-3-carboxylic acid hydroxyamide [Example 41]”, for which the 50% inhibitory concentration (IC50) on MMP-1 [1] amounted to 136 nM.
With “4-[Methyl-(4-methoxy-benzenesulfonyl)-amino]-6-phenylethyl-quinoline-3-carboxylic acid hydroxyamide [Example 35]”, the IC50 at TACE was found to be 49 nM; on MMP-1 [1] it was 234 nM.
Take “4-{Methyl-(4-(pyridin-4-yloxy)-benzenesulfonyl]-amino}-6-iodo-quinoline-3-carboxylic acid hydroxyamide hydrochloride [Example 33]”: the half-maximal inhibitory concentration (IC50) at MMP-1 [1] was 1010 nM.
Turning to “4-{[4-(4-Chlorophenyloxy)benzenesulfonyl]methylamino}-1,3-dimethyl-1H-pyrazolo[3,4-b]pyridine-5-carboxylic Acid, Hydroxyamide [Example 89]”, the 50% inhibitory concentration (IC50) on MMP-9 is 0.8 nM; against TACE, 356 ± 15 nM; at MMP-1 [1], 116 nM. In addition, the “in-vivo MMP % inhibition” value on MMP-13 [2] is reported as 6% (25).
As for `COc1ccc(S(=O)(=O)N(Cc2cccnc2)c2c(C(=O)NO)cnc3cc(C)nn23)cc1` (as salt: salt) [Example 88, 7-[(4-Methoxybenzenesulfonyl)pyridin-3-ylmethylamino]-2-methylpyrazolo[1,5-a]pyrimidine-6-carboxylic Acid, Hydroxyamide], the melting point was 170 °C (dec.).
The same measure, in the same setting: next, `COc1ccc(S(=O)(=O)N(Cc2cccnc2)c2c(C(=O)NO)cnc3c2c(C)nn3C)cc1` [Example 60, 4-[(4-Methoxybenzenesulfonyl)pyridin-3-ylmethylamino]-1,3-dimethyl-1H-pyrazolo[3,4-b]pyridine-5-carboxylic acid, hydroxyamide]: 196 to 198 °C.
Take `Cc1nsc2ncc(C(=O)NO)c(N(C)S(=O)(=O)c3ccc(Oc4ccncc4)cc3)c12` [Example 92, 4-{Methyl-[4-(4-pyridinyloxy)benzenesulfonyl]amino}-3-methylisothiazolo[5,4-b]pyridine-5-carboxylic Acid, Hydroxyamide]: the melting point is 146 °C (dec.). Further, the half-maximal inhibitory concentration (IC50) at MMP-9 was 12 nM. Moreover, half-maximal inhibition on MMP-13 [3] (IC50) required 6.1 nM. At TACE, this compound came in with an IC50 of more than 1640 nM. Moreover, the “in-vivo MMP % inhibition” value at MMP-13 [2] was 30% (25). In addition, the inhibition at 10 µM at MMP-1 [4] was determined as 60.2%.
